Here are results for two compounds from patent publication US7534806B2, “Method for treating neuropathic pain and associated syndromes” (Avigen, Inc., priority 2004, dated 2009).

Molecules are shown by their SMILES. Entries after “also recorded” stand apart in the source; their conditions may differ.

For series [1], the system named is mechanical allodynia in rat Chung model. Put plainly: von Frey test of mechanical allodynia in rat Chung model of neuropathic pain. The format is in vivo. How it is done:
Test Agents: Haorui and Sigma ibudilast was formulated as described above. Ibudilast was administered at 10 mg/kg twice daily, (3.7 ml/kg of 2.7 mg/ml in 35% PEG/saline) i.p. each morning (typically 8 am) and pm (typically 3 pm). Animals: Pathogen-free adult male Wistar rats (150-200 g; Elevage Janvier) were used in all experiments. Rats were housed in temperature (23+/−3° C.) and light (12:12 light: dark; lights on at 0700 hr) controlled rooms with standard rodent chow and water available ad libitum. Behavioral testing was performed during the light cycle. Chung model: Rats were anesthetized under isoflurane (4-5% induction and 2-3% maintenance in 100% oxygen) and an incision at the L4-S2 levels was performed to expose the left L5 and L6 spinal nerves. A ligature was tied tightly around each nerve. The wound was then sutured. The rats received an injection of clamoxil and were allowed to recover. Sham controls were subjected to the same surgical procedure except that the nerves were not ligated. […] Multi-day Study for Neuropathic Pain Efficacy: A 3-day efficacy study was undertaken wherein the animals (n=3-4/group for shams and 5/group for Chung animals) were administered 10 mg/kg ibudilast or 35% PEG/saline vehicle twice daily and mechanical allodynia was monitored at various time intervals post-dosing. […] A pre-dose reading was acquired each day in order to assess durability of efficacy.

Series [2] deals with mechanical allodynia in rat chronic constriction injury (CCI) model. As to the kind of experiment: von Frey test of mechanical allodynia in rat chronic constriction injury (CCI) model of neuropathic pain. The format is in vivo.
In the next series the test system is activated microglia. Conditions: dose-dependent; Mizuno et al. 2004; cited from earlier work.
Series [3] has as its system astrocyte activation (Glial Fibrillary Acidic Protein staining). Put plainly: GFAP immunohistochemistry of lumbar spinal cord from CCI rats (astrocyte activation). Type of series: in vivo, rat. Conditions: 7.5 mg/kg ip BID for 5 days. The text has this:
Study of Attenuation of Glial Cell Activation in Ibudilast-Treated CCI Rats: At the end of the 5-day study, animals (4/group) from the CCI vehicle control or CCI ibudilast group were euthanized and lumbar spinal cord tissue was isolated and stained for astrocyte activation with an antibody reactive against Glial Fibrillary Acidic Protein (GFAP) as described in […] and J A DeLeo, Brain Research (2002) 956:294-301. FIG. 6 depicts a typical staining profile from CCI vehicle-treated animals. Enlarged (activated) astrocytes, typically observed in subjects with neuropathic pain (CCI rats in this case), are visible in the CCI group.

Series [4] can be described thus: Dose selection study: rat tolerability to intraperitoneal ibudilast. Type of series: in vivo. The text has this: Dose Selection Study: Preliminary studies were designed to assess rat tolerability to single and multiple intraperitoneal administrations of ibudilast. […] These included extended head, increased respiratory rate, occasional circling behavior and vocalization, and lethargy.

A further series is described as follows: in vivo. Conditions: rat. Here is the method:
Pharmacokinetics. Plasma Ibudilast Concentrations Correlating with Efficacy: Dedicated pharmacokinetic studies in normal rats were performed with ibudilast dosing i.p. or p.o. in order to correlate drug plasma levels with changes in mechanical allodynia (i.e. neuropathic pain efficacy). Following dosing (time t=0), serial bleeding from n=3 rats/time point and 6 time points interspersed between 5 min and 6 hr was obtained, plasma was isolated, and ibudilast concentrations were determined by a HPLC and two-dimensional mass spectrometry (LC/MS/MS) method (described in Example 4) sensitive to ≦1 ng/ml. […] Moreover, pharmacokinetic-pharmacodynamic analyses involving PK parameters including Cmax, area under the curve (AUC), and elimination half-life (t1/2) indicated Cmax is an important parameter in establishing efficacy.
(§1) Tissue Concentration Analysis: A solution of ibudilast (Haorui) at 0.5 mg/ml in DMSO was used as the working stock. A solution of ibudilast at 0.5 mg/ml in DMSO was prepared using the powdered ibudilast provided with the study samples and used as the working stock. Calibration standards in plasma were prepared by diluting each 0.5 mg/ml stock 1 in 100 into rat plasma to 5000 ng/ml (5 μl+495 μl), then diluting further, to 2.29 ng/ml, by 3-fold serial dilution with plasma. Standards 3, 5 and 7 were used as low, mid and high QC samples, respectively.
(§2) Calibration standards, QC and plasma study samples were prepared for HPLC injection by precipitating 25 μl of plasma with 3× volumes (75 μl) of ice cold acetonitrile containing 50 ng/ml diphenhydramine and 100 ng/ml dextromethorphan as the internal standards. Tissue study samples were prepared for HPLC injection by adding 1 μl of water per mg of tissue plus 3× volumes (relative to water) of ice cold acetonitrile containing 50 ng/ml diphenhydramine and 100 ng/ml dextromethorphan as the internal standards, then homogenized with an electric homogenizer. Following centrifugation at 6100 g for 30 minutes, 40 μl of each supernatant was diluted with 200 μl of 0.2% formic acid in water and analyzed by the following LC/MS/MS conditions: • HPLC: Shimadzu VP System • Mobile Phase: 0.2% formic acid in water (A) and in methanol (B) • Column: 2×10 mm Peeke Scientific DuraGel G C18 guard cartridge • Injection Volume: 100 μl • Gradient: 5-95% B in 2 minutes after a 0.75 minute wash • Flow Rate: 400 μl/min • Mass Spectrometer: Applied Biosystems/MDS SCIEX API 3000 • Interface: TurboIonSpray (ESI) at 400° C. • Ionization Mode: Positive Ion • Q1/Q3 Ions: 231.2/161.2 for ibudilast Studies and Results

Series [5] in a line: Rat ibudilast plasma PK and tissue distribution (plasma, muscle, brain, spinal cord). The format is in vivo. Here is the method: Test Agents: Ibudilast was prepared in 15% ethanol/saline. Drug stability and concentration were validated by HPLC/MS/MS.
Animals: Pathogen-free adult male Sprague-Dawley rats (280-350 g; Harlan Labs) were used in all experiments. Rats were housed in temperature (23+/−3° C.) and light (12:12 light: dark; lights on at 0700 hr) controlled rooms with standard rodent chow and water available ad libitum. Behavioral testing was performed during the light cycle.
PK Analysis: Rats (n=3/group) were administered 5 mg/kg ibudilast, i.p. and plasma, muscle, brain, and spinal cord were harvested at 5, 15, 60, 180, and 420 min post administration.
as §1
as §2, with “Tissue study samples were prepared for HPLC injection by adding 1 μl of water per mg of tissue plus 3× volumes (relative to water) of ice cold acetonitrile containing 50 ng/ml diphenhydramine and 100 ng/ml dextromethorphan as the internal standards, then homogenized with an electric homogenizer.” left out

The conditions of series [6]: humans, cited from earlier work.
Series [7] concerns mechanical allodynia in rat model of taxol-induced neuropathic pain. As to the kind of experiment: von Frey test of mechanical allodynia in rat model of taxol-induced neuropathic pain. Type of series: in vivo. Here is the method:
Test Agents: Ibudilast was formulated as described above. Ibudilast was administered at 7.5 mg/kg (2.7 ml/kg of 2.8 mg/ml in 35% PEG/saline i.p. each morning (typically 8 am) and pm (typically 3 pm). Animals: Pathogen-free adult male Sprague-Dawley rats (280-350 g; Harlan Labs) were used in all experiments. Rats were housed in temperature (23+/−3° C.) and light (12:12 light: dark; lights on at 0700 hr) controlled rooms with standard rodent chow and water available ad libitum. Behavioral testing was performed during the light cycle. Taxol Model: Neuropathic pain was induced by administration of 4 i.p. injections on alternate days (Day 0, 2, 4, and 6) of 1 mg/kg taxol (Paclitaxel®, cumulative dose 4 mg/kg). Neuropathic pain onset was maximal around day 19 post taxol administration (Day 0). Ibudilast or vehicle control treatment initiated at either day 19 (treatment paradigm) or day 12 (prevention paradigm). Allodynia results were determined prior to the morning administration of vehicle or ibudilast. Behavioral Measures von Frey Test: The von Frey test was performed within the sciatic or saphenous innervation area of the hindpaws as previously described above for the CCI model. All testing was conducted in the am prior to the morning dose of ibudilast for that day. Multi-day Study for Neuropathic Pain Efficacy: 7.5 mg/kg Ibudilast was administered twice daily for 7 days starting day 20 after the first taxol dose (Day 0). Mechanical allodynia was assessed prior to the first dose of ibudilast each day. Prevention of Taxol-Induced Neuropathy: A second study was performed identical in nature to the multi-day study described above except that ibudilast or vehicle control administrations were initiated on day 12 just as allodynia was becoming clearly evident.

The conditions of series [8]: administered systemically; Sugiyama et al. 1993; cited from earlier work.

With `CC(C)C(=O)c1c(C(C)C)nn2ccccc12` [Ibudilast, 3-isobutyryl-2-isopropylpyrazolo[1,5-a]pyridine], in series [1] (10 mg/kg i.p. b.i.d., within two days of regimen), the “time after treatment at which reversal of neuropathic pain was still evident (pre-dose reading)” value turned out to be 16 h. Besides, the “magnitude of allodynia (50% withdrawal threshold)” value in series [1] (10 mg/kg i.p. twice daily, 3 days) is recorded as “attenuated the magnitude of allodynia”. For the same compound, in series [2] (21 mg/kg p.o. twice daily), the “days of treatment after which attenuation became durable (pm dosing to next day's pre-am test)” value is 2 days. For the same compound, the “earliest time of attenuation of allodynia after the first dose” value in [2] (21 mg/kg p.o. twice daily) came out at 4 h. Further, the “attenuation of allodynia, oral twice daily” value in series [2] (21 mg/kg p.o. twice daily 2 days then 25.5 mg/kg 3 days, 35% PEG/saline) was “Attenuation of allodynia was observed”. In addition, the “days of dosing to durable efficacy lasting overnight” value in series [2] (50 mg/kg oral gavage once daily) is on record as at most 7 days. Moreover, the “magnitude of allodynia, oral once daily” value in series [2] (50 mg/kg oral gavage once daily, 10% HCO-60, 10% PEG400 in saline, following 2 days of dosing, shortly after morning dose) is “significantly attenuated the magnitude of allodynia”. Also, the “magnitude of allodynia (50% withdrawal threshold), multi-day study” value in [2] (2.5, 7.5 or 10 mg/kg i.p. twice daily, 1 week, significant at +2 hr post-administration) is given as “attenuated the magnitude of allodynia”. Also, in [2] (doses >2.5 mg/kg i.p. bid, within two days of regimen), the “time after treatment at which reversal of neuropathic pain was still evident” value turned out to be 16 h. The “paw withdrawal thresholds in ibudilast sham animals” value in [2] (sham-operated rats, single i.p. 10-15 mg/kg) was “no changes in paw withdrawal thresholds”. Further, in series [2] (single i.p. 10-15 mg/kg), the “time at which reduction in allodynia was apparent” value amounted to 1 h. In [2] (single i.p. 10-15 mg/kg), the “time of maximum reduction in allodynia” value was 2 h. Also, in [2] (single i.p. 10-15 mg/kg), the “time of return to baseline” value stood at 16 h. Further, the “acute reduction in allodynia relative to CCI vehicle animals” value in series [2] (single i.p. administration of 10-15 mg/kg, measured 1, 2, 4, 16 hr post-administration) is on record as “showed a reduction in allodynia”. The “production of IL-10, NGF, GDNF and NT-4” value in the series with activated microglia is given as “enhance”. Further, the “production of nitric oxide (NO), reactive oxygen species, IL-1β, IL-6 and TNF” value in the series on activated microglia was “suppress”. Moreover, the “glial cell activation as measured by GFAP staining” value in [3] is “Reduced glial cell activation”. Further, the “duration of adverse behavioral effects” value in series [4] (i.p. doses >20 mg/kg in 35% PEG/saline) is given as “up to 1 hr”. For the same compound, the adverse behavioral effects result in series [4] (i.p. doses >20 mg/kg in 35% PEG/saline, volume </=5 ml/kg) is “produced adverse behavioral effects”. Besides, in [4] (rat, in vivo, ip, 15 mg/kg), the tolerability entry is listed as “generally well tolerated”. In addition, the Cmax is at least 125 ng/mL in the series “in vivo”; 125 ng/mL in “in vivo” (ip, 2.5 mg/kg); 1710 ng/mL in the series “in vivo” (ip, 7.5 mg/kg); 325 ng/mL in the series “in vivo” (po, 21 mg/kg); 387 ng/mL in the series “in vivo” (po, 50 mg/kg); about 1000 ng/mL in series [5] (male, Sprague-Dawley, rat, plasma and CNS tissues (brain, spinal cord), ip, ~5 mg/kg i.p., 15% ethanol/saline, read-out: maximal concentration (Cmax) in plasma and CNS tissues). Besides, the tissue distribution result in [5] (5 mg/kg i.p.) is “well distributed to peripheral (e.g. muscle) and central (e.g. brain and spinal cord) tissues”. The half-life in series [5] (male, Sprague-Dawley, rat, ip, 5 mg/kg i.p., plasma, muscle, brain, spinal cord, read-out: elimination half-life in all tissue compartments) fell in the range of 1.67 to 2.32 h. Moreover, in series [6] (10 mg BID or TID, Cai-Li et al. 2003), the “multi-dose steady state Cmax” value is 45 ng/mL. Besides, the “single dose Cmax” value in [6] (10 mg, Ketas Package Insert) is 25 ng/mL. In addition, the “prevention of taxol-induced neuropathy development” value in series [7] (7.5 mg/kg i.p. BID initiated on day 12) is “prevented the further neuropathy development”. In addition, the “time to return to allodynic state after discontinuation” value in [7] (7.5 mg/kg i.p. twice daily) was at most 1 days. In addition, the “magnitude of allodynia, treatment of established taxol neuropathy” value in [7] (7.5 mg/kg i.p. twice daily for 7 days, measured prior to morning dose) was “attenuated the magnitude of allodynia; also recorded: statistically significantly different from vehicle control”. Besides, in series [8], the blood-brain barrier crossing entry is recorded as “crosses the blood-brain barrier”.
As for `CN1CC[C@]23c4c5ccc(O)c4O[C@H]2[C@@H](O)C=C[C@H]3[C@H]1C5` [morphine], in series [2] (7.5 mg/kg ibudilast ip bid alone or with 1 mg/kg morphine s.c., several days), the “reversal of allodynia in comparison to vehicle control, combination study” value is recorded as “greater than that by ibudilast”.

By half-life is commonly meant the time in which the quantity being followed falls by half.
